Measured values reported in patent US9695155B2, “Herbicidal substituted pyrimidinyloxy benzene compounds” (E. I. DU PONT DE NEMOURS AND COMPANY, priority 2013, dated 2017).

What was measured:
corn [1] = assay: Test C postemergence; type: in vivo, Zea mays; settings: for Corn plant response rating: 16 g ai/ha, visual rating; for Corn plant response rating / Plant response rating (0 to 100), Corn: postemergence; for Corn plant response rating / Plant response rating, Corn: scale 0 to 100 (0 no effect, 100 complete control); for Plant response rating (0 to 100), Corn: 125 g ai/ha; for Plant response rating, Corn: Postemergence
Method in brief: (§1)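 Seeds were sown in loam–sand blend and sprayed preemergence, while plants at 1- to 4-leaf stage (2–18 cm) in peat-based medium received postemergence sprays; test chemicals were formulated in a non-phytotoxic solvent with surfactant. After 13–15 days in a greenhouse, injury was rated visually against controls, 0 (no effect) to 100 (complete control).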

johnsongrass = assay: Test C postemergence; type: in vivo, Sorghum halepense; settings: for Johnsongrass plant response rating: 16 g ai/ha, visual rating; for Johnsongrass plant response rating / Plant response rating (0 to 100), Johnsongrass: postemergence; for Johnsongrass plant response rating / Plant response rating, Johnsongrass: scale 0 to 100 (0 no effect, 100 complete control); for Plant response rating (0 to 100), Johnsongrass: 125 g ai/ha; for Plant response rating, Johnsongrass: Postemergence
Method in brief: as §1

large (Lg) crabgrass = assay: Test A preemergence; type: in vivo, Digitaria sanguinalis; settings: for Plant response rating, Crabgrass, Large: 125 g ai/ha, 0 to 100 scale where 0 is no effect and 100 is complete control; for Crabgrass, Large plant response rating: 500 g ai/ha, 0 to 100 scale, 0 no effect, 100 complete control, approx. 10 days
Method in brief: (§2)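 Scoring: eye-based comparison with untreated controls, 0 for no effect through 100 for complete control, at about day 10. Treatments: directed soil spray preemergence; foliar spray postemergence on 2–10 cm plants at the one- to two-leaf stage. Medium: loam soil with sand.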

velvetleaf [2] = assay: Test C postemergence; type: in vivo, Abutilon theophrasti; settings: for Plant response rating (0 to 100), Velvetleaf: 125 g ai/ha, postemergence; for Plant response rating, Velvetleaf: Postemergence, scale 0 to 100 (0 no effect, 100 complete control)
Method in brief: as §1

morningglory [3] = assay: Test C postemergence; type: in vivo, Ipomoea coccinea; settings: for Plant response rating (0 to 100), Morningglory: 125 g ai/ha, postemergence; for Plant response rating, Morningglory: Postemergence, scale 0 to 100 (0 no effect, 100 complete control)
Method in brief: as §1

corn [4] = assay: Test A postemergence; type: in vivo, Zea mays; settings: 0 to 100 scale where 0 is no effect and 100 is complete control
Method in brief: as §2

corn [5] = assay: Test A preemergence; type: in vivo, Zea mays; settings: for Plant response rating, Corn: 125 g ai/ha, 0 to 100 scale where 0 is no effect and 100 is complete control; for Corn plant response rating: 500 g ai/ha, 0 to 100 scale, 0 no effect, 100 complete control, approx. 10 days
Method in brief: as §2

waterhemp = assay: Test C postemergence; type: in vivo, Amaranthus rudis; settings: for Plant response rating (0 to 100), Waterhemp: 125 g ai/ha, postemergence; for Plant response rating, Waterhemp: Postemergence, scale 0 to 100 (0 no effect, 100 complete control)
Method in brief: as §1

oilseed rape = assay: Test C postemergence; type: in vivo, Brassica napus; settings: for Plant response rating (0 to 100), Oilseed Rape: 125 g ai/ha, postemergence; for Plant response rating, Oilseed Rape: Postemergence, scale 0 to 100 (0 no effect, 100 complete control)
Method in brief: as §1

velvetleaf [6] = assay: Test A preemergence; type: in vivo, Abutilon theophrasti; settings: 125 g ai/ha, 0 to 100 scale where 0 is no effect and 100 is complete control
Method in brief: as §2

barnyardgrass = assay: Test A postemergence; type: in vivo, Echinochloa crus-galli; settings: 0 to 100 scale where 0 is no effect and 100 is complete control
Method in brief: as §2

Heteranthera limosa = assay: Test B flooded paddy test; type: in vivo; settings: Flood, 250 g ai/ha; 0 to 100 scale where 0 is no effect and 100 is complete control
Method in brief: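 Plants at 2-leaf stage; pots flooded to 3 cm above soil and compound applied directly into paddy water, depth held throughout. After 13 to 15 days in greenhouse, visual rating versus controls on 0 (no effect) to 100 (complete control) scale.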

giant foxtail [7] = assay: Test C postemergence; type: in vivo, Setaria faberii; settings: for Foxtail, Giant plant response rating: 16 g ai/ha, visual rating; for Foxtail, Giant plant response rating / Plant response rating (0 to 100), Foxtail, Giant: postemergence; for Foxtail, Giant plant response rating / Plant response rating, Foxtail, Giant: scale 0 to 100 (0 no effect, 100 complete control); for Plant response rating (0 to 100), Foxtail, Giant: 125 g ai/ha; for Plant response rating, Foxtail, Giant: Postemergence
Method in brief: as §1

morningglory [8] = assay: Test A postemergence; type: in vivo, Ipomoea spp.; settings: 0 to 100 scale where 0 is no effect and 100 is complete control
Method in brief: as §2

giant foxtail [9] = assay: Test A postemergence; type: in vivo, Setaria faberii; settings: 0 to 100 scale where 0 is no effect and 100 is complete control
Method in brief: as §2

pigweed = assay: Test C postemergence; type: in vivo, Amaranthus retroflexus; settings: for Plant response rating (0 to 100), Pigweed: 125 g ai/ha, postemergence; for Plant response rating, Pigweed: Postemergence, scale 0 to 100 (0 no effect, 100 complete control)
Method in brief: as §1

Compound: Fc1cnc(Oc2cccc(C(F)F)c2-n2cc(Cl)cn2)nc1 [Compound 94]
- Corn plant response rating (corn [1]; 13 to 15 days): 5
- Plant response rating (0 to 100), Corn (corn [1]): 5
- Plant response rating, Corn (corn [1]; 31 g ai/ha, 13 to 15 days): 5
- Plant response rating, Corn (corn [1]; 62 g ai/ha): 35
- Johnsongrass plant response rating (johnsongrass; 13 to 15 days): 5
- Plant response rating (0 to 100), Johnsongrass (johnsongrass): 5
- Plant response rating, Johnsongrass (johnsongrass; 31 g ai/ha, 13 to 15 days): 5
- Plant response rating, Johnsongrass (johnsongrass; 62 g ai/ha): 5
- Plant response rating, Crabgrass, Large (large (Lg) crabgrass): 100
- Crabgrass, Large plant response rating (large (Lg) crabgrass): 100
- Plant response rating (0 to 100), Velvetleaf (velvetleaf [2]): 40
- Plant response rating, Velvetleaf (velvetleaf [2]; 31 g ai/ha, 13 to 15 days): 20
- Plant response rating, Velvetleaf (velvetleaf [2]; 62 g ai/ha): 65
- Plant response rating (0 to 100), Morningglory (morningglory [3]): 55
- Plant response rating, Morningglory (morningglory [3]; 31 g ai/ha, 13 to 15 days): 75
- Plant response rating, Morningglory (morningglory [3]; 62 g ai/ha): 75
- Plant response rating, Corn (corn [4]; 125 g ai/ha): 30
- Plant response rating, Corn (corn [4]; 500 g ai/ha): 50
- Plant response rating, Corn (corn [5]): 0
- Corn plant response rating (corn [5]): 30
- Plant response rating (0 to 100), Waterhemp (waterhemp): 70
- Plant response rating, Waterhemp (waterhemp; 31 g ai/ha, 13 to 15 days): 80
- Plant response rating, Waterhemp (waterhemp; 62 g ai/ha): 75
- Plant response rating (0 to 100), Oilseed Rape (oilseed rape): 80
- Plant response rating, Oilseed Rape (oilseed rape; 31 g ai/ha, 13 to 15 days): 50
- Plant response rating, Oilseed Rape (oilseed rape; 62 g ai/ha): 50
- Plant response rating, Velvetleaf (velvetleaf [6]): 90
- Plant response rating, Barnyardgrass (barnyardgrass; 125 g ai/ha): 20
- Plant response rating, Barnyardgrass (barnyardgrass; 500 g ai/ha): 90
- Plant response rating, Ducksalad (Heteranthera limosa): 40
- Foxtail, Giant plant response rating (giant foxtail [7]; 13 to 15 days): 10
- Plant response rating (0 to 100), Foxtail, Giant (giant foxtail [7]): 10
- Plant response rating, Foxtail, Giant (giant foxtail [7]; 31 g ai/ha, 13 to 15 days): 10
- Plant response rating, Foxtail, Giant (giant foxtail [7]; 62 g ai/ha): 10
- Plant response rating, Morningglory (morningglory [8]; 125 g ai/ha): 80
- Plant response rating, Morningglory (morningglory [8]; 500 g ai/ha): 100
- Plant response rating, Foxtail, Giant (giant foxtail [9]; 125 g ai/ha): 70
- Plant response rating, Foxtail, Giant (giant foxtail [9]; 500 g ai/ha): 90
- Plant response rating (0 to 100), Pigweed (pigweed): 85
- Plant response rating, Pigweed (pigweed; 31 g ai/ha, 13 to 15 days): 80
- Plant response rating, Pigweed (pigweed; 62 g ai/ha): 80

Compound: FC(F)Oc1cnn(-c2ccccc2Oc2ncc(Cl)cn2)c1 [Compound 98]
- Corn plant response rating (corn [1]; 13 to 15 days): 5
- Plant response rating (0 to 100), Corn (corn [1]): 20
- Plant response rating, Corn (corn [1]; 31 g ai/ha, 13 to 15 days): 10
- Plant response rating, Corn (corn [1]; 62 g ai/ha): 5
- Johnsongrass plant response rating (johnsongrass; 13 to 15 days): 0
- Plant response rating (0 to 100), Johnsongrass (johnsongrass): 10
- Plant response rating, Johnsongrass (johnsongrass; 31 g ai/ha, 13 to 15 days): 0
- Plant response rating, Johnsongrass (johnsongrass; 62 g ai/ha): 5
- Plant response rating, Crabgrass, Large (large (Lg) crabgrass): 100
- Crabgrass, Large plant response rating (large (Lg) crabgrass): 100
- Plant response rating (0 to 100), Velvetleaf (velvetleaf [2]): 90
- Plant response rating, Velvetleaf (velvetleaf [2]; 31 g ai/ha, 13 to 15 days): 50
- Plant response rating, Velvetleaf (velvetleaf [2]; 62 g ai/ha): 70
- Plant response rating (0 to 100), Morningglory (morningglory [3]): 85
- Plant response rating, Morningglory (morningglory [3]; 31 g ai/ha, 13 to 15 days): 30
- Plant response rating, Morningglory (morningglory [3]; 62 g ai/ha): 65
- Plant response rating, Corn (corn [4]; 125 g ai/ha): 40
- Plant response rating, Corn (corn [4]; 500 g ai/ha): 70
- Plant response rating, Corn (corn [5]): 0
- Corn plant response rating (corn [5]): 10
- Plant response rating (0 to 100), Waterhemp (waterhemp): 85
- Plant response rating, Waterhemp (waterhemp; 31 g ai/ha, 13 to 15 days): 50
- Plant response rating, Waterhemp (waterhemp; 62 g ai/ha): 80
- Plant response rating (0 to 100), Oilseed Rape (oilseed rape): 98
- Plant response rating, Oilseed Rape (oilseed rape; 31 g ai/ha, 13 to 15 days): 80
- Plant response rating, Oilseed Rape (oilseed rape; 62 g ai/ha): 95
- Plant response rating, Velvetleaf (velvetleaf [6]): 90
- Plant response rating, Barnyardgrass (barnyardgrass; 125 g ai/ha): 80
- Plant response rating, Barnyardgrass (barnyardgrass; 500 g ai/ha): 90
- Plant response rating, Ducksalad (Heteranthera limosa): 85
- Foxtail, Giant plant response rating (giant foxtail [7]; 13 to 15 days): 5
- Plant response rating (0 to 100), Foxtail, Giant (giant foxtail [7]): 10
- Plant response rating, Foxtail, Giant (giant foxtail [7]; 31 g ai/ha, 13 to 15 days): 5
- Plant response rating, Foxtail, Giant (giant foxtail [7]; 62 g ai/ha): 5
- Plant response rating, Morningglory (morningglory [8]; 500 g ai/ha): 100
- Plant response rating, Foxtail, Giant (giant foxtail [9]; 125 g ai/ha): 80
- Plant response rating, Foxtail, Giant (giant foxtail [9]; 500 g ai/ha): 90
- Plant response rating (0 to 100), Pigweed (pigweed): 75
- Plant response rating, Pigweed (pigweed; 31 g ai/ha, 13 to 15 days): 75
- Plant response rating, Pigweed (pigweed; 62 g ai/ha): 75
